The values that follow come from patent publication US9416141B2 (University of Washington through its Center for …, priority 2012, dated 2016).

The test system of the experiment is hair cells. Briefly: Hair cell toxicity assay in zebrafish (neomycin-induced hair cell death, DASPEI staining of neuromasts). The settings on record: Danio rerio; for Emax at 25 µM: maximum observed @ 25 μM test compound; for EC50: zebrafish larvae 5-7 dpf, 1 h pre-treatment, then 200 micromolar neomycin + test compound 30 min, read-out: HC50 (concentration that would produce 50% hair cell survival); for Emax at 8.3 µM: maximum observed @ 8.3 μM test compound; for Emax at 2.8 µM: maximum observed @ 2.8 μM test compound. In kind it is in vivo. On the procedure: Zebrafish are bred and newly fertilized embryos are collected the week prior and raised at 28.5° C. in petri dishes containing embryo medium. Newly hatched free-swimming larvae are fed paramecium and dry fish food at 4 days post fertilization (dpf) with lights on. For treatment, fish 5-7 dpf are transferred to cell culture baskets and place within a well of a 6-well plate containing 7 milliliters of 1× embryo medium. Typically, tests are done with ten fish per basket but work well with up to 50 fish. All treatment and wash volumes are 7 milliliters. • 1. Fish are pre-treated with test compound for 1 hour. […] Treat with 200 micromolar neomycin (neomycin sulfate, Sigma, St. Louis, Mo., catalog #N1142)+test compound for 30 minutes. • 3. Rinse fish briefly 4 times in embryo medium and add 700 μl of 0.05% DASPEI (2-{4-(dimethylamino)styryl}-N-ethylpyridinium iodide, Molecular Probes, Eugene, Oreg.) and allowed to stain for 15 minutes. • 4. Rinse twice in embryo medium and add 350 μl MS222 (0.55 ug/ml final concentration, 3-aminobenzoic acid ethyl ester, methansulfoneate salt, Sigma, St. Louis, Mo.) to anesthetize. • 5. View with epifluorescence dissecting microscope equipped with a DAPSEI filter set (excitation […], Chroma Technologies, Brattleboro, Vt.). For assessment of initial dose response curves, fish are transferred to wide depression slide with wide-bore pipette. The DASPEI staining of ten neuromasts (SO1, SO2, IO1, IO2, IO3, IO4, M2, MI1, MI2 and O2) on one side of an animal are evaluated. Each neuromast is scored for presence of DASPEI staining (score=2), reduced DASPEI staining (score=1) or absence of DASPEI staining (score=0). Total scores for an animal are tabulated, to give a composite score that can range from 0 to 20. Average scores and standard deviations are calculated for animals in each treatment group. Scores are normalized to control group (vehicle only, no drug, no neomycin) and expressed as % hair cell survival. HCmax is the maximum protection (hair cell survival) observed. • 6. If at least 50% hair cells survive, the HC50 (concentration that would produce 50% hair cell survival) is calculated as a linear extrapolation from the nearest concentrations of protective drug that produce hair cell survival below and above 50%. If less than 50% hair cells survive, the HC50 is not determined. 1× embryo media (standard lab EM): • 1 mM MgSO4, • 0.15 mM KH2PO4, • 0.05 mM Na2HPO4, • 1 mM CaCl2, • 0.5 mM KCl • 15 mM NaCl • 0.7 mM NaHCO3

[1] abbreviates: 200 micromolar neomycin, read-out: Max HC Protection (HCmax, % hair cell survival).

Structures can show the parent of a compound that is named as a salt.

Consider `NCCN1CCc2c(sc(NC(=O)Nc3ccc(Cl)cc3)c2C(N)=O)C1` [Example 11, 6-(2-Aminoethyl)-2-[3-(4-chlorophenyl)ureido]-4,5,6,7-tetrahydrothieno[2,3-c]pyridine-3-carboxamide dihydrochloride], for which the EC50 was in the range of 1 to 10 µM. Moreover, the Emax at 25 µM under setting [1] worked out at 68%.

`NC(=O)c1c(NC(=O)Nc2ccc(Cl)cc2)sc2c1CCN(CC1CCC1)C2` [Example 12, 2-[3-(4-Chlorophenyl)ureido]-6-(cyclobutylmethyl)-4,5,6,7-tetrahydrothieno[2,3-c]pyridine-3-carboxamide hydrochloride]: the EC50 fell in the range of 1 to 10 µM. For the same molecule, the Emax at 8.3 µM under setting [1] was found to be 73%.

In the case of `NC(=O)c1c(NC(=O)Nc2ccc(Cl)cc2)sc2c1CCN(CCCC(=O)O)C2` [Example 13, 4-{3-Carbamoyl-2-[3-(4-chlorophenyl)ureido]-4,5-dihydrothieno[2,3-c]pyridin-6(7H)-yl}butanoic acid hydrochloride], the Emax at 8.3 µM under setting [1] turned out to be 17%.

Turning to `CC(C)(C)OC(=O)CCCN1CCc2c(sc(NC(=O)Nc3ccc(Cl)cc3)c2C(N)=O)C1` [Example 14, tert-Butyl 4-{3-carbamoyl-2-[3-(4-chlorophenyl)ureido]-4,5-dihydrothieno[2,3-c]pyridin-6(7H)-yl}butanoate], the EC50 is less than 1 µM. Under setting [1], the Emax at 8.3 µM came out at 83%.

On to `CC(=O)NCCN1CCc2c(sc(NC(=O)Nc3ccc(Cl)cc3)c2C(N)=O)C1` [Example 15, 6-(2-Acetamidoethyl)-2-[3-(4-chlorophenyl)ureido]-4,5,6,7-tetrahydrothieno[2,3-c]pyridine-3-carboxamide trifluoroacetate], for which the EC50 was greater than 10 µM. Also, under setting [1], the Emax at 25 µM worked out at 57%.

With `NC(=O)c1c(NC(=O)Nc2ccc(Cl)cc2)sc2c1CCN(CC1CCCCC1)C2` [Example 16, 2-[3-(4-Chlorophenyl)ureido]-6-(cyclohexylmethyl)-4,5,6,7-tetrahydrothieno[23-c]pyridine-3-carboxamide hydrochloride], the EC50 lay within 1 to 10 µM. Also, the Emax at 2.8 µM under setting [1] amounted to 57%.

On to `NC(=O)c1c(NC(=O)Nc2ccc(Cl)cc2)sc2c1CCN(CC1CCCC1)C2` [Example 17, 2-[3-(4-Chlorophenyl)ureido]-6-(cyclopentylmethyl)-4,5,6,7-tetrahydrothieno[2,3-c]pyridine-3-carboxamide hydrochloride], for which the EC50 is 1 to 10 µM. The Emax at 8.3 µM under setting [1] is 65%.

As to `CC(C)(C)OC(=O)CCCCCN1CCc2c(sc(NC(=O)Nc3ccc(Cl)cc3)c2C(N)=O)C1` [Example 18, tert-Butyl 6-{3-carbamoyl-2-[3-(4-chlorophenyl)ureido]-4,5-dihydrothieno[2,3-c]pyridin-6(7H)-yl}hexanoate], the EC50 is less than 1 µM. For the same molecule, the Emax at 2.8 µM under setting [1] turned out to be 64%.

Take `CC(C)(C)OC(=O)CCCCN1CCc2c(sc(NC(=O)Nc3ccc(Cl)cc3)c2C(N)=O)C1` [Example 19, tert-Butyl 5-{3-carbamoyl-2-[3-(4-chlorophenyl)ureido]-4,5-dihydrothieno[2,3-c]pyridin-6(7H)-yl}pentanoate]: the EC50 was less than 1 µM. Moreover, the Emax at 8.3 µM under setting [1] was determined as 68%.

For the molecule `COC(=O)CCCN1CCc2c(sc(NC(=O)Nc3ccc(Cl)cc3)c2C(N)=O)C1` [Example 20, Methyl 4-{3-carbamoyl-2-[3-(4-chlorophenyl)ureido]-4,5-dihydrothieno[2,3-c]pyridin-6(7H)-yl}butanoate hydrochloride], the EC50 was in the range of 1 to 10 µM. The Emax at 25 µM under setting [1] came to 65%.

`CCOC(=O)CCCN1CCc2c(sc(NC(=O)Nc3ccc(Cl)cc3)c2C(N)=O)C1` [Example 21, Ethyl 4-{3-carbamoyl-2-[3-(4-chlorophenyl)ureido]-4,5-dihydrothieno[2,3-c]pyridin-6(7H)-yl}butanoate hydrochloride]: the EC50 was 1 to 10 µM. In addition, the Emax at 2.8 µM under setting [1] was found to be 57%.

`CC(C)(C)OC(=O)C1CC(N2CCc3c(sc(NC(=O)Nc4ccc(Cl)cc4)c3C(N)=O)C2)C1` (stereo not shown) [Example 22, tert-Butyl 3-{3-carbamoyl-2-[3-(4-chlorophenyl)ureido]-4,5-dihydrothieno[2,3-c]pyridin-6(7H)-yl}cyclobutanecarboxylate]: the Emax at 2.8 µM under setting [1] is 22%.

Consider `CN(C)C(=O)CCCN1CCc2c(sc(NC(=O)Nc3ccc(Cl)cc3)c2C(N)=O)C1` [Example 23, 2-[3-(4-Chlorophenyl)ureido]-6-[4-(dimethylamino)-4-oxobutyl]-4,5,6,7-tetrahydrothieno[2,3-c]pyridine-3-carboxamide hydrochloride], for which the Emax at 2.8 µM under setting [1] worked out at 43%.

Turning to `CC1(CN2CCc3c(sc(NC(=O)Nc4ccc(Cl)cc4)c3C(N)=O)C2)CCC1` [Example 24, 2-[3-(4-Chlorophenyl)ureido]-6-[(1-methylcyclobutyl)methyl]-4,5,6,7-tetrahydrothieno[2,3-c]pyridine-3-carboxamide trifluoroacetate], the EC50 lay in the range of 1 to 10 µM. In addition, the Emax at 2.8 µM under setting [1] is 54%.

Turning to `CC(C)NC(=O)CCCN1CCc2c(sc(NC(=O)Nc3ccc(Cl)cc3)c2C(N)=O)C1` [Example 25, 2-[3-(4-Chlorophenyl)ureido]-6-[4-(isopropylamino)-4-oxobutyl]-4,5,6,7-tetrahydrothieno[2,3-c]pyridine-3-carboxamide hydrochloride], the EC50 fell in the range of 1 to 10 µM. The Emax at 2.8 µM under setting [1] turned out to be 57%.

Consider `CC(C)CN1CCc2c(sc(NC(=O)Nc3ccc(Cl)cc3)c2C(N)=O)C1` [Example 26, 2-[3-(4-Chlorophenyl)ureido]-6-isobutyl-4,5,6,7-tetrahydrothieno[2,3-c]pyridine-3-carboxamide hydrochloride], for which the EC50 was 1 to 10 µM. Under setting [1], the Emax at 8.3 µM came out at 68%.

On to `CC(C)(C)CN1CCc2c(sc(NC(=O)Nc3ccc(Cl)cc3)c2C(N)=O)C1` [Example 27, 2-[3-(4-Chlorophenyl)ureido]-6-neopentyl-4,5,6,7-tetrahydrothieno[2,3-c]pyridine-3-carboxamide hydrochloride], for which the EC50 is 1 to 10 µM. In addition, the Emax at 25 µM under setting [1] is 79%.

Take `CCN1Cc2sc(NC(=O)Nc3ccc(Cl)cc3)c(C(N)=O)c2C1` [Example 28, 2-[3-(4-Chlorophenyl)ureido]-5-ethyl-5,6-dihydro-4H-thieno[2,3-c]pyrrole-3-carboxamide hydrochloride]: the EC50 was 1 to 10 µM. Further, the Emax at 8.3 µM under setting [1] stood at 58%.

As to `CCN1CCc2c(sc(NC(=O)Nc3ccc(C(=O)OC(C)(C)C)cc3)c2C(N)=O)C1` [Example 29, tert-Butyl 4-[3-(3-carbamoyl-6-ethyl-4,5,6,7-tetrahydrothieno[2,3-c]pyridin-2-yl)ureido]benzoate], the EC50 fell in the range of 1 to 10 µM. Moreover, the Emax at 25 µM under setting [1] came out at 75%.

For `CCN1CCc2c(sc(NC(=O)Nc3ccc(CC(=O)OC(C)(C)C)cc3)c2C(N)=O)C1` [Example 30, tert-Butyl 2-{4-[3-(3-carbamoyl-6-ethyl-4,5,6,7-tetrahydrothieno[2,3-c]pyridin-2-yl)ureido]phenyl}acetate], the EC50 was in the range of 1 to 10 µM. The Emax at 25 µM under setting [1] is 58%.

For the molecule `CCN1CCc2c(sc(NC(=O)Nc3ccc(C(=O)OC)cc3)c2C(N)=O)C1` [Example 31, Methyl 4-[3-(3-carbamoyl-6-ethyl-4,5,6,7-tetrahydrothieno[2,3-c]pyridin-2-yl)ureido]benzoate trifluoroacetate], the Emax at 25 µM under setting [1] was determined as 22%.

Consider `CCN1CCc2c(sc(NC(=O)Nc3ccc(C(=O)O)cc3)c2C(N)=O)C1` [Example 32, 4-[3-(3-Carbamoyl-6-ethyl-4,5,6,7-tetrahydrothieno[2,3-c]pyridin-2-yl)ureido]benzoic acid trifluoroacetate], for which, under setting [1], the Emax at 25 µM was 19%.

On to `CCN1CCc2c(sc(NC(=O)Nc3ccc(CC(=O)O)cc3)c2C(N)=O)C1` [Example 33, 2-{4-[3-(3-Carbamoyl-6-ethyl-4,5,6,7-tetrahydrothieno[2,3-c]pyridin-2-yl)ureido]phenyl}acetic acid trifluoroacetate], for which, under “maximum observed @ 0.93 μM test compound, 200 micromolar neomycin, read-out: Max HC Protection (HCmax, % hair cell survival)”, the Emax at 0.93 µM was determined as 9%.
